Patent US20260209180A1, “PROTEASE INHIBITORS FOR TREATING OR PREVENTING CORONAVIRUS INFECTION” (Merck Sharp & Dohme LLC, priority 2023, published 2026)

Target: SARS2 coronavirus 3CL protease (Severe acute respiratory syndrome coronavirus 2, UniProt P0DTD1)
Assay: SARS2 Coronavirus 3CL Protease Assay (FRET)
Assay type: biochemical
Conditions: 5 nM protease pre-incubated with compound 30 minutes; 15 uM peptide substrate; 4 h room temperature; read-out: FRET Potency (nM); IC50 values in the SARS2 3CLPro FRET assay
Procedure: The enzymatic activity of SARS2 coronavirus 3CL protease was determined in a FRET (fluorescence resonance energy transfer)-based assay measuring the cleavage of a peptide substrate by recombinantly expressed and purified enzyme. Cleavage of the peptide SEQ ID NO: 1 (CPC Scientific) by SARS2 3CL protease was measured in reaction buffer (50 mM Hepes pH 7.5, 0.01% Triton X-100, 0.01% BSA, 2 mM DTT). […] Room temperature reactions (4 h) were quenched by addition of a high dose of inhibitor and read on an appropriate plate reader (excitation wavelength=495 nm, emission wavelength=520 nm). Data were analyzed by a standard 4 parameter fit to determine IC50 values.

| SMILES | IC50 |
| --- | --- |
| CNC(=O)C(=O)[C@H](CCC(C)F)NC(=O)c1cc(Cl)ccc1NC(=O)OC (single isomer, unassigned) [Example 6A] | 25.8 nM |
| CNC(=O)C(=O)[C@H](CCC(C)F)NC(=O)c1cc(Cl)ccc1NC(=O)OC (single isomer, unassigned) [Example 6B] | 154 nM |
| CNC(=O)C(=O)[C@H](CCC(C)F)NC(=O)c1cc(Cl)ccc1NC(=O)OC (single isomer, unassigned) [Example 6C] | 13.6 nM |
| CNC(=O)C(=O)[C@H](CCC(C)F)NC(=O)c1cc(Cl)ccc1NC(=O)OC (single isomer, unassigned) [Example 6D] | 702 nM |
| CNC(=O)C(=O)[C@H](CCC(C)(F)F)NC(=O)c1cc(Cl)ccc1NC(=O)C1CC12CC2 (single isomer, unassigned) [Example 19] | 10.5 nM |
| CNC(=O)C(=O)[C@H](CCC(C)(F)F)NC(=O)c1cc(Cl)ccc1NC(=O)C1CC12CC2 (single isomer, unassigned) [Example 33] | 21.5 nM |
| CNC(=O)C(=O)[C@H](CCC(C)(F)F)NC(=O)c1cc(Cl)ccc1NC(=O)c1ccnc(C(F)(F)F)c1 [Example 1, (S)—N-(4-chloro-2-((6,6-difluoro-1-(methylamino)-1,2-dioxoheptan-3-yl)carbamoyl)phenyl)-2-(trifluoromethyl)isonicotinamide] | 8.1 nM |
| CNC(=O)C(=O)[C@H](CCC(C)(F)F)NC(=O)c1cc(Cl)cnc1NC(=O)C12CC(C(F)(F)F)(C1)C2 [Example 2, (S)-5-chloro-N-(6,6-difluoro-1-(methylamino)-1,2-dioxoheptan-3-yl)-2-(3-(trifluoromethyl)bicyclo[1.1.1]pentane-1-carboxamido)nicotinamide] | 11.6 nM |
| COC(=O)N[C@H](C(=O)Nc1ccc(Cl)cc1C(=O)N[C@@H](CCC(C)(F)F)C(=O)C(=O)NC1CC1)C(C)(C)C [Example 3, Methyl ((S)-1-((4-chloro-2-(((S)-1-(cyclopropylamino)-6,6-difluoro-1,2-dioxoheptan-3-yl)carbamoyl)phenyl)amino)-3,3-dimethyl-1-oxobutan-2-yl)carbamate] | 24 nM |
| CNC(=O)C(=O)[C@H](CCC(C)(F)F)NC(=O)c1cc(Cl)c(F)cc1NC(=O)CCC(F)(F)F [Example 4, (S)-5-chloro-N-(6,6-difluoro-1-(methylamino)-1,2-dioxoheptan-3-yl)-4-fluoro-2-(4,4,4-trifluorobutanamido)benzamide] | 9.9 nM |
| CC(F)(F)CC[C@H](NC(=O)c1cc(Cl)cnc1NC(=O)c1cccc(C(F)(F)F)c1)C(=O)C(=O)NC1CC1 [Example 5, (S)-5-chloro-N-(1-(cyclopropylamino)-6,6-difluoro-1,2-dioxoheptan-3-yl)-2-(3-(trifluoromethyl)benzamido)nicotinamide] | 9.2 nM |
| CC(F)(F)CC[C@H](NC(=O)c1cc(Cl)ccc1NC(=O)c1ccnc(C(F)(F)F)c1)C(=O)C(N)=O [Example 7, (S)—N-(2-((1-amino-6,6-difluoro-1_2-dioxoheptan-3-yl)carbamoyl)-4-chlorophenyl)-2-(trifluoromethyl)isonicotinamide] | 18 nM |
| CNC(=O)C(=O)[C@H](CCC(C)(F)F)NC(=O)c1cc(Cl)ccc1NC(=O)C(C)c1cscn1 (stereo partly drawn) [Example 8, 5-chloro-N-[(1S)-4,4-difluoro-1-[2-(methylamino)-2-oxo-acetyl]pentyl]-2-(2-thiazol-4-ylpropanoylamino)benzamide] | 6.6 nM |
| CNC(=O)C(=O)[C@H](CCC(C)(F)F)NC(=O)c1cc(Cl)ccc1NC(=O)C1CCc2scnc21 (stereo partly drawn) [Example 9, N-[4-chloro-2-[[(1S)-4,4-difluoro-1-[2-(methylamino)-2-oxo-acetyl]pentyl]carbamoyl]phenyl]-5,6-dihydro-4H-cyclopenta[d]thiazole-4-carboxamide] | 7 nM |
| CNC(=O)C(=O)[C@H](CCC(C)(F)F)NC(=O)c1cc(Cl)ccc1NC(=O)C(C)c1cscn1 (stereo partly drawn) [Example 10, 5-chloro-N-[(1S)-4,4-difluoro-1-[2-(methylamino)-2-oxo-acetyl]pentyl]-2-(2-thiazol-4-ylpropanoylamino)benzamide] | 7 nM |
| CNC(=O)C(=O)[C@H](CCC(C)(F)F)NC(=O)c1cc(Cl)ccc1NC(=O)C1CC12CCOCC2 (stereo partly drawn) [Example 11, N-[4-chloro-2-[[(1S)-4,4-difluoro-1-[2-(methylamino)-2-oxo-acetyl]pentyl]carbamoyl]phenyl]-6-oxaspiro[2.5]octane-2-carboxamide] | 7.7 nM |
| CC(F)(F)CC[C@H](NC(=O)c1cc(Cl)ccc1NC(=O)c1cccc(C(F)(F)F)c1)C(=O)C(=O)NC1CC1 [Example 12, 5-chloro-N-[(1S)-1-[2-(cyclopropylamino)-2-oxo-acetyl]-4.4-difluoro-pentyl]-2-[[3-(trifluoromethyl)benzoyl]amino]benzamide] | 7.9 nM |
| CNC(=O)C(=O)[C@H](CCC(C)(F)F)NC(=O)c1cc(Cl)ccc1NC(=O)C1CC(F)(F)C1 [Example 13, 5-chloro-2-[(3,3-difluorocyclobutanecarbonyl)amino]-N-[(1S)-4,4-difluoro-1-[2-(methylamino)-2-oxo-acetyl]pentyl]benzamide] | 8 nM |
| CNC(=O)C(=O)[C@H](CCC(C)(F)F)NC(=O)c1cc(Cl)ccc1NC(=O)CCC(F)(F)F [Example 14, 5-chloro-N-[(1S)-4,4-difluoro-1-[2-(methylamino)-2-oxo-acetyl]pentyl]-2-(4,4,4-trifluorobutanoylamino) benzamide] | 8.2 nM |
| CNC(=O)C(=O)[C@H](CCC(C)(F)F)NC(=O)c1cc(Cl)ccc1NC(=O)C1CCc2scnc21 (stereo partly drawn) [Example 15, N-[4-chloro-2-[[(1S)-4,4-difluoro-1-[2-(methylamino)-2-oxo-acetyl]pentyl]carbamoyl]phenyl]-5,6-dihydro-4H-cyclopenta[d]thiazole-4-carboxamide] | 8.4 nM |
| CNC(=O)C(=O)[C@H](CCC(C)(F)F)NC(=O)c1cc(Cl)ccc1NC(=O)C1CCOCC1 [Example 16, N-[4-chloro-2-[[(1S)-4,4-difluoro-1-[2-(methylamino)-2-oxo-acetyl]pentyl]carbamoyl]phenyl] tetrahydropyran-4-carboxamide] | 8.5 nM |
| CNC(=O)C(=O)[C@H](CCC(C)(F)F)NC(=O)c1cc(Cl)ccc1NC(=O)c1cccc(C(F)(F)F)n1 [Example 17, N-[4-chloro-2-[[(1S)-4,4-difluoro-1-[2-(methylamino)-2-oxo-acetyl]pentyl]carbamoyl]phenyl]-6-(trifluoromethyl)pyridine-2-carboxamide] | 8.7 nM |
| CNC(=O)C(=O)[C@H](CCC(C)(F)F)NC(=O)c1cc(F)cnc1NC(=O)c1cccc(C(F)(F)F)c1 [Example 18, N-[(1S)-4,4-difluoro-1-[2-(methylamino)-2-oxo-acetyl]pentyl]-5-fluoro-2-[[3-(trifluoromethyl)benzoyl]amino]pyridine-3-carboxamide] | 9.8 nM |
| CNC(=O)C(=O)[C@H](CCC(C)(F)F)NC(=O)c1cc(Cl)ccc1NC(=O)C1(C(F)(F)F)CC1 [Example 20, 5-chloro-N-[(1S)-4,4-difluoro-1-[2-(methylamino)-2-oxo-acetyl]pentyl]-2-[[1-(trifluoromethyl)cyclopropane-carbonyl]amino]benzamide] | 11.6 nM |
| CNC(=O)C(=O)[C@H](CCC(C)(F)F)NC(=O)c1cc(Cl)cnc1NC(=O)c1cccc(C(F)(F)F)c1 [Example 21, 5-chloro-N-[(1S)-4,4-difluoro-1-[2-(methylamino)-2-oxo-acetyl]pentyl]-2-[[3-(trifluoromethyl)benzoyl]amino]pyridine-3-carboxamide] | 11.7 nM |
